According to patent US9079895B2, “Morpholino compounds, uses and methods” (University of Dundee, priority 2012, dated 2015):

Experiments:
[1] = biological target: 5HT1a receptor (Homo sapiens (Human), UniProt P08908); assay: Secondary radioligand binding assay, 5HT1a; conditions: average of at least two experiments
Procedure: (§8) Assay Buffer: Standard Binding Buffer (50 mM Tris-HCl, 10 mM MgCl2, 1 mM EDTA, pH 7.4)
(§9) Membrane Fraction Source: Transiently or stably transfected cell lines (e.g., HEK293, COS, CHO, NIH3T3)

[2] = biological target: 5HT1b receptor (Homo sapiens (Human), UniProt P28222); assay: Secondary radioligand binding assay, 5HT1b; conditions: average of at least two experiments
Procedure: as §8, §9
The 250 μl reactions are incubated at room temperature and shielded from light (to prevent photolysis of light-sensitive ligands) for 1.5 hours, then harvested by rapid filtration onto Whatman GF/B glass fiber filters pre-soaked with 0.3% polyethyleneimine using a 96-well Brandel harverster. Four rapid 500 μl washes are performed with chilled Standard Binding Buffer to reduce non-specific binding. Filters are placed in 6 ml scintillation tubes and allowed to dry overnight. […] The tubes are capped, labeled, and counted by liquid scintillation counting. […] The filter mats are dried, then scintillant is melted onto the filters and the radioactivity retained on the filters is counted in a Microbeta scintillation counter. […]

[3] = biological target: 5HT2a receptor (Homo sapiens (Human), UniProt P28223); assay: Secondary radioligand binding assay, 5HT2a; conditions: average of at least two experiments
Procedure: as §8, §9

[4] = biological target: dopamine D4 receptor (Homo sapiens (Human), UniProt P21917); assay: Secondary radioligand binding assay, D4; conditions: receptor binding; average of at least two experiments; read-out: Ki D4
Procedure: (§1) 1. Secondary Radioligand Binding Assays
(§2) The detailed experimental protocols for the radioligand and functional receptor assays are available on the NIMH PDSP website at http://pdsp.med.unc.edu/UNC-CH %20Protocol %20Book.pdf.
(§3) Radioligand is diluted to five times the assay concentration (see Table 18) in Standard Binding Buffer. Typically, the assay concentration of radioligand is a value between one half the KD and the KD of a particular radioligand at its target. 50 μl aliquots of radioligand are dispensed into the wells of a 96-well plate containing 100 μl of Standard Binding Buffer. Then, duplicate 50 μl aliquots of the test and reference compound dilutions are added.
(§4) The 250 μl reactions are incubated at room temperature and shielded from light (to prevent photolysis of light-sensitive ligands) for 1.5 hours, then harvested by rapid filtration onto Whatman GF/B glass fiber filters pre-soaked with 0.3% polyethyleneimine using a 96-well Brandel harverster. Four rapid 500 μl washes are performed with chilled Standard Binding Buffer to reduce non-specific binding. Filters are placed in 6 ml scintillation tubes and allowed to dry overnight. The next day, 4 ml of EcoScint scintillation cocktail (National Diagnostics) are added to each tube. The tubes are capped, labeled, and counted by liquid scintillation counting. […] The filter mats are dried, then scintillant is melted onto the filters and the radioactivity retained on the filters is counted in a Microbeta scintillation counter.
(§5) Raw data (dpm) representing total radioligand binding (i.e. specific+non-specific binding) are plotted as a function of the logarithm of the molar concentration of the competitor (i.e. test or reference compound).
(§6) B. Dopamine Receptors: D1, D2, D3, D4, D5 Assay Buffers: Dopamine Binding Buffer (50 mM NaCl, 50 mM HEPES-HCl, 5 mM MgCl2, 0.5 mM EDTA, pH 7.4) Membrane Fraction Source: Transiently or stably transfected cell lines (e.g. HEK293, COS, CHO, NIH3T3)
(§7) The method is carried out in the manner described for the serotonin receptor assay above. Eleven dilutions (5× assay concentration) of the test and reference (see Table 19) compounds are prepared in Dopamine Binding Buffer by serial dilution, as previously described. Radioligand is diluted to five times the assay concentration (see Table 20) in Dopamine Binding Buffer.

[5] = biological target: dopamine D3 receptor (Homo sapiens (Human), UniProt P35462); assay: Secondary radioligand binding assay, D3; set-up: key to Ki D3: “—” indicates that a binding interaction was not detected; conditions: average of at least two experiments
Procedure: as §1, §2, §3, §4, §5, §6, §7

[6] = biological target: hERG (Homo sapiens (Human), UniProt Q12809); assay: hERG assay (PatchXpress patch clamp); assay type: cell-based
Procedure: 2. hERG Assay hERG activity was assayed by the patch clamp method on a PatchXpress platform and by FluxOR T1+ assays.

[7] = Metabolic stability assay (in vitro), mouse hepatic microsomes; assay type: in vitro ADME; conditions: mouse liver microsomes, 0.5 μM test compound
Procedure: 3. Metabolic Stability Assay (In Vitro)
Metabolic stability was assessed, generating the in vitro intrinsic clearance (Cli) following incubation of test compound with mouse hepatic microsomes. The assay was performed as previously described (Ruda et al. (2010), “Aryl Phosphoramidates of 5-phosho erythronohydroxamic acid, a new class of potent trypanocidal agents”, J. Med. Chem. 53, pp 6071-6078).
Briefly, each test compound (0.5 μM) was incubated with pooled female mouse liver microsomes (Tebu-Bio, UK; 0.5 mg/ml 50 mM potassium phosphate buffer, pH7.4) and the reaction started with addition of excess NADPH (8 mg/ml 50 mM potassium phosphate buffer, pH7.4) Immediately, at time zero, then at 3, 6, 9, 15 and 30 minutes an aliquot (50 μl) of the incubation mixture was removed and mixed with acetonitrile (100 μl) to stop the reaction. Internal standard was added to all samples. […]
XLfit (IDBS, UK) was used to calculate the exponential decay and consequently the rate constant (k) from the ratio of peak area of test compound to internal standard at each timepoint. The rate of intrinsic clearance (CLi) of each compound was then calculated using the following equation (1): CLi(ml/min/g liver)=k×V×Microsomal protein yield (1) where V (ml/mg protein) is the incubation volume/mg protein added and microsomal protein yield is taken as 52.5 mg protein/g liver. […]

Chain of dopamine D3 receptor (P35462 whole entry, species assumed): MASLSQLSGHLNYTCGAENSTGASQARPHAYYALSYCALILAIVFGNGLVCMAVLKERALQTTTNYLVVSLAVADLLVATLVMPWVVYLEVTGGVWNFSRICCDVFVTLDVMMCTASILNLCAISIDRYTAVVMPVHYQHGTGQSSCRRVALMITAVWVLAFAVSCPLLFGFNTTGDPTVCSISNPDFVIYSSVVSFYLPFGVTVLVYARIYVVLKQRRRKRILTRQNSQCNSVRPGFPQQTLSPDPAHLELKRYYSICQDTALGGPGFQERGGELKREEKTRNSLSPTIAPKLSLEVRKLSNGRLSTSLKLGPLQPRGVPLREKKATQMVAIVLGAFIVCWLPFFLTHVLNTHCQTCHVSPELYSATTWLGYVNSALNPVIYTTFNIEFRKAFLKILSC
Chain of 5HT2a receptor (P28223 whole entry): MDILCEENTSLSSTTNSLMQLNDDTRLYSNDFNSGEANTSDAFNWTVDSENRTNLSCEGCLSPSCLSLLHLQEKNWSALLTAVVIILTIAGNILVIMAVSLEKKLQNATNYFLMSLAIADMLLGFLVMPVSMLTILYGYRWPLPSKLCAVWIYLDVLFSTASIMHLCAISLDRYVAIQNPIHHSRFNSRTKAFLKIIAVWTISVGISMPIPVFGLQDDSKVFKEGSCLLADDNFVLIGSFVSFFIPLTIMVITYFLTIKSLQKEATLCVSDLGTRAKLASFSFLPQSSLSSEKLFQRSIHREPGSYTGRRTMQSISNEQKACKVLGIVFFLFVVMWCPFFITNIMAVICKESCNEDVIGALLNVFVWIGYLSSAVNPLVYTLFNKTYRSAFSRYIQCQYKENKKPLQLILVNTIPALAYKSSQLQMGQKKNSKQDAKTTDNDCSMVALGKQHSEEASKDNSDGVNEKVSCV
Chain of 5HT1a receptor (P08908 whole entry): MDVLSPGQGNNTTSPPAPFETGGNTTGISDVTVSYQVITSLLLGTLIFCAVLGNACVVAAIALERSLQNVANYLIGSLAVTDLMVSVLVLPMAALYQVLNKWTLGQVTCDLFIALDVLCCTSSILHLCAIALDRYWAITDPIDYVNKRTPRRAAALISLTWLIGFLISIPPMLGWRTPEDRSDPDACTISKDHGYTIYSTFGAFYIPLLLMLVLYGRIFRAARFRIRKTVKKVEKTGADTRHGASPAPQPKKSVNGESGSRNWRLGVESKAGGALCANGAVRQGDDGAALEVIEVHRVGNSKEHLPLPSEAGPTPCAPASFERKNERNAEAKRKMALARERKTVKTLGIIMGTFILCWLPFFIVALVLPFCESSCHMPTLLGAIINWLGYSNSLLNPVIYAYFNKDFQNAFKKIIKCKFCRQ
Chain of 5HT1b receptor (P28222 whole entry): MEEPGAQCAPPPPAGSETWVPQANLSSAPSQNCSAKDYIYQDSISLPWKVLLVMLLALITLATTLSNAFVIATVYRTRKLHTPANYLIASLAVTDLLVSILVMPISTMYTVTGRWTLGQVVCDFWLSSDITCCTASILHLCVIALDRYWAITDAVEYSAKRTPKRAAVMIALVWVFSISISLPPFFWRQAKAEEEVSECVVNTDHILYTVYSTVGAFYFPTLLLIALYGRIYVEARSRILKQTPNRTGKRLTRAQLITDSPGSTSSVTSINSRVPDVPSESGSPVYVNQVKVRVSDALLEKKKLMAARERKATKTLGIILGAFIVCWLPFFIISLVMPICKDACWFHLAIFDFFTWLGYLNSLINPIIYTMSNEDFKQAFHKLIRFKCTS
Chain of hERG (Q12809 whole entry): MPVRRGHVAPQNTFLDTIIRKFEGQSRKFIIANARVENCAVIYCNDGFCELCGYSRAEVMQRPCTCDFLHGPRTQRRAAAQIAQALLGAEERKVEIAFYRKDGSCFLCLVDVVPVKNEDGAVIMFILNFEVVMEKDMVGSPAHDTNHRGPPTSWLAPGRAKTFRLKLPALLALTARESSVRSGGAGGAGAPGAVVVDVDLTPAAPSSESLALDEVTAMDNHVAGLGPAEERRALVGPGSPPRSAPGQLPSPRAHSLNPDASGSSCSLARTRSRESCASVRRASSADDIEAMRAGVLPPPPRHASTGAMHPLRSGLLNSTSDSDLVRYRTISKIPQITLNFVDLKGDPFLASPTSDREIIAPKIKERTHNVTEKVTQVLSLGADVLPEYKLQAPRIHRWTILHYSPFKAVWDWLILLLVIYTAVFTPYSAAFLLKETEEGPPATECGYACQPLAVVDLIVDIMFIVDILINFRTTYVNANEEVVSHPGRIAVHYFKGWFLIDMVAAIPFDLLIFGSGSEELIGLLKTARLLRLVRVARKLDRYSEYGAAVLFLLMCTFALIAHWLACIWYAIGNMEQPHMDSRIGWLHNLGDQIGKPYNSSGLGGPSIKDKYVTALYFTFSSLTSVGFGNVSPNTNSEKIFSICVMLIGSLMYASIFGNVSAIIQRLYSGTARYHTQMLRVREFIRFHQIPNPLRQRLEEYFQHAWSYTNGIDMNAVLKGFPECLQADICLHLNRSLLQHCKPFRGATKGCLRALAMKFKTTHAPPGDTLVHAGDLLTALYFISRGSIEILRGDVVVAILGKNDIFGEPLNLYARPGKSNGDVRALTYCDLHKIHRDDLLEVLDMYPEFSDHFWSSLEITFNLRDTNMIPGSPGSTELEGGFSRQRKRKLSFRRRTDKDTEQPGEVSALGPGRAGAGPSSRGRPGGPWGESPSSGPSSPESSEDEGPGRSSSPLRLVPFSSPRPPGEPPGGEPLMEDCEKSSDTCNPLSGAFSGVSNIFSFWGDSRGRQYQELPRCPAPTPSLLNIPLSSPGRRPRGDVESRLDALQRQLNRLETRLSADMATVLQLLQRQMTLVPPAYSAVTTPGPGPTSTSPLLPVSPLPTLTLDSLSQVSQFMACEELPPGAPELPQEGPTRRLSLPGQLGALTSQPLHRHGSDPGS
Chain of dopamine D4 receptor (P21917 whole entry, species assumed): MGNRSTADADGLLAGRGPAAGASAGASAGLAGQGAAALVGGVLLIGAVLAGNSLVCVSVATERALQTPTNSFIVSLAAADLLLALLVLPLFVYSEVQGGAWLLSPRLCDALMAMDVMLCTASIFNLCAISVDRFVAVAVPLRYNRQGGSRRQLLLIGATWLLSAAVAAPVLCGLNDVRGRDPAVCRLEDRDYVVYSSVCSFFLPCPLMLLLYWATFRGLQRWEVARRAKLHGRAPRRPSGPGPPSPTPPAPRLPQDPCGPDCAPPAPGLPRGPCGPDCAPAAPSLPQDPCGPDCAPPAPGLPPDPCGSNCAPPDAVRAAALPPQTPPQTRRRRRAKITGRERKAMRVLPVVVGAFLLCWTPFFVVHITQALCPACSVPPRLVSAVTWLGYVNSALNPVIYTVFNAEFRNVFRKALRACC

Row | SMILES | Ki [1] [µM] | Ki [2] [µM] | Ki [3] [µM] | Ki [4] [µM] | Ki D3 [5] | hERG inhibition pEC50 [6] | mouse hepatic microsomal Cli (intrinsic clearance) [7] [mL/min/g]
1 | O=C(CN1CCO[C@H](COc2cccc(Cl)c2)C1)N1CCc2ccccc21 [Compound 22s, (S)-2-(2-((3-Chlorophenoxy)methyl)morpholino)-1-(indolin-1-yl)ethanone] | 1.39 | 7.77 | 2.72 | 2.86 | — |  | 
2 | COc1cccc(OC[C@@H]2CN(CC(=O)N3CCc4ccccc43)CCO2)c1 [Compound 24s, (S)-1-(Indolin-1-yl)-2-(2-((3-methoxyphenoxy)methyl)morpholino)ethanone] | 0.371 | 4.83 | 1.94 |  | — |  | 
3 | Clc1cncc(OC[C@@H]2CN(CCN3CCc4ccccc43)CCO2)c1 [Compound 27s, (S)-2-(((5-Chloropyridin-3-yl)oxy)methyl)-4-(2-(indolin-1-yl)ethyl)morpholine] |  |  |  |  | — | 5.51+/−0.13 | 25
